Measured values reported in PubChem BioAssay AID192 (DTP/NCI, 2004).
Where “and” joins values, the source holds several entries; their conditions need not be identical. Identical values can stand only once. Toxic doses and inconclusive results are not listed. The calls were made as follows: active = survival T/C of 150% or more; inactive = T/C below 125% in these data.

Test system: BDF1 mice, B16 melanoma ip, median survival T/C
Test: NCI In Vivo Anticancer Drug Screen. Data for tumor model B16 Melanoma (intraperitoneal) in B6D2F1 (BDF1) mice
Conditions: endpoint: median survival time, higher = longer survival
Outline: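 Read-out: survival or tumor size, given as treated/control ratio. Controls received vehicle only; animals bore transplantable tumors.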

[1] = dose: 50.0 mg/kg/injection, schedule: Q01DX009 (ip), vehicle: saline with Tween-80
[2] = dose: 100.0 mg/kg/injection, schedule: Q01DX009 (ip), vehicle: saline with Tween-80
[3] = dose: 6.25 mg/kg/injection, schedule: Q01DX009 (ip), vehicle: Klucel (hydroxypropylcellulose) (HPC)
[4] = dose: 12.5 mg/kg/injection, schedule: Q01DX009 (ip), vehicle: Klucel (hydroxypropylcellulose) (HPC)
[5] = dose: 25.0 mg/kg/injection, schedule: Q01DX009 (ip), vehicle: Klucel (hydroxypropylcellulose) (HPC)
[6] = dose: 50.0 mg/kg/injection, schedule: Q01DX009 (ip), vehicle: Klucel (hydroxypropylcellulose) (HPC)
[7] = dose: 1.56 mg/kg/injection, schedule: Q01DX009 (ip), vehicle: Klucel (hydroxypropylcellulose) (HPC)
[8] = dose: 50.0 mg/kg/injection, schedule: Q01DX009 (ip), vehicle: saline
[9] = dose: 100.0 mg/kg/injection, schedule: Q01DX009 (ip), vehicle: saline
[10] = dose: 200.0 mg/kg/injection, schedule: Q01DX009 (ip), vehicle: saline

Measured: T/C

Cc1ccccc1OCC(O)CO (stereo not given)
inactive: [1] 92 % of control | [2] 110 % of control | dose: 200.0 mg/kg/injection, schedule: Q01DX009 (ip), vehicle: saline with Tween-80 110 % of control | dose: 400.0 mg/kg/injection, schedule: Q01DX009 (ip), vehicle: saline with Tween-80 105 % of control

CCC(CO)NC(=O)C1C=C2c3cccc4[nH]cc(c34)CC2N(C)C1 (stereo not given)
inactive: [3] 93 % of control | [4] 98 % of control | [5] 91 % of control | [6] 86 % of control | dose: 100.0 mg/kg/injection, schedule: Q01DX009 (ip), vehicle: Klucel (hydroxypropylcellulose) (HPC) 86 % of control | dose: 200.0 mg/kg/injection, schedule: Q01DX009 (ip), vehicle: Klucel (hydroxypropylcellulose) (HPC) 111 % of control

N=C(N)c1nn(C2OC(CO)C(O)C2O)c2ncnc(N)c12 (stereo not given)
inactive: dose: 0.78 mg/kg/injection, schedule: Q01DX009 (ip), vehicle: Klucel (hydroxypropylcellulose) (HPC) 97 % of control | [7] 98 % of control | dose: 3.12 mg/kg/injection, schedule: Q01DX009 (ip), vehicle: Klucel (hydroxypropylcellulose) (HPC) 93 % of control and 99 % of control | [3] 102 % of control | [4] 90 % of control | [5] 101 % of control

COc1cc2c(cc1Oc1c(Oc3c(O)c(OC)cc4c3C(CC(C)C)N(C)CC4)c(OC)cc3c1C(CC(C)C)N(C)CC3)C(CC(C)C)N(C)CC2 (stereo not given)
inactive: [4] 100 % of control | [5] 96 % of control | [6] 110 % of control

Oc1cc2ccccc2c(-c2c(O)c(O)cc3ccccc23)c1O
inactive: dose: 12.5 mg/kg/injection, schedule: Q01DX009 (ip), vehicle: saline with Tween-80 114 % of control | dose: 25.0 mg/kg/injection, schedule: Q01DX009 (ip), vehicle: saline with Tween-80 117 % of control | [1] 117 % of control | [2] 110 % of control

C=C1C(=O)OC2CC1CCC1(C)OC1CCC(C)=CCCC2(C)O (stereo not given)
inactive: dose: 0.04 mg/kg/injection, schedule: Q01DX009 (ip), vehicle: Klucel (hydroxypropylcellulose) (HPC) 90 % of control | dose: 0.09 mg/kg/injection, schedule: Q01DX009 (ip), vehicle: Klucel (hydroxypropylcellulose) (HPC) 91 % of control | dose: 1.8 mg/kg/injection, schedule: Q01DX009 (ip), vehicle: Klucel (hydroxypropylcellulose) (HPC) 86 % of control and 91 % of control | dose: 7.5 mg/kg/injection, schedule: Q01DX009 (ip), vehicle: Klucel (hydroxypropylcellulose) (HPC) 98 % of control

Clc1cc(Cl)c(C[N+]23CN4CN(CN(C4)C2)C3)cc1Cl
inactive: dose: 25.0 mg/kg/injection, schedule: Q01DX009 (ip), vehicle: saline 117 % of control | [8] 108 % of control | [9] 111 % of control | [10] 122 % of control

C[CH2][Pb]([CH2]C)([CH2]C)[O]C(=O)COC
inactive: [7] 96 % of control | dose: 3.13 mg/kg/injection, schedule: Q01DX009 (ip), vehicle: Klucel (hydroxypropylcellulose) (HPC) 105 % of control

C[C@H](CCC(=O)O)[C@H]1CC[C@H]2[C@@H]3[C@H](O)C[C@@H]4C[C@H](O)CC[C@]4(C)[C@H]3C[C@H](O)[C@]12C (tested in a mixture with another compound)
inactive: [8] 102 % of control | [9] 109 % of control | [10] 111 % of control

CC1(C#N)CCc2c(ccc3ccccc23)C1=O (stereo not given)
inactive: dose: 50.0 mg/kg/injection, schedule: Q04DX003 (ip), vehicle: other 122 % of control | dose: 100.0 mg/kg/injection, schedule: Q04DX003 (ip), vehicle: other 107 % of control | dose: 100.0 mg/kg/injection, schedule: Q04DX003 (ip), vehicle: saline with Tween-80 95 % of control | dose: 400.0 mg/kg/injection, schedule: Q04DX003 (ip), vehicle: saline with Tween-80 95 % of control

OCC1OC(n2nnc3cc[nH]c(=S)c32)C(O)C1O (stereo not given)
inactive: dose: 3.13 mg/kg/injection, schedule: Q01DX009 (ip), vehicle: water 97 % of control | dose: 6.25 mg/kg/injection, schedule: Q01DX009 (ip), vehicle: water 113 % of control | dose: 12.5 mg/kg/injection, schedule: Q01DX009 (ip), vehicle: water 101 % of control | dose: 25.0 mg/kg/injection, schedule: Q01DX009 (ip), vehicle: water 101 % of control

CC(=O)C1=C(O)C2(O)C(=O)c3c(c(C)c4ccc(C)c(O)c4c3O)CC2C(N)C1=O (stereo not given)
inactive: dose: 1.56 mg/kg/injection, schedule: Q01DX009 (ip), vehicle: saline with Tween-80 100 % of control | dose: 3.13 mg/kg/injection, schedule: Q01DX009 (ip), vehicle: saline with Tween-80 95 % of control | dose: 3.75 mg/kg/injection, schedule: Q01DX009 (ip), vehicle: saline + alcohol 103 % of control | dose: 6.25 mg/kg/injection, schedule: Q01DX009 (ip), vehicle: saline with Tween-80 100 % of control | dose: 7.5 mg/kg/injection, schedule: Q01DX009 (ip), vehicle: saline + alcohol 105 % of control | dose: 15.0 mg/kg/injection, schedule: Q01DX009 (ip), vehicle: saline + alcohol 114 % of control
